{"source": "patent US7687540B2", "about": "“Substituted propane phosphinic acid esters” (Aventis Pharmaceuticals Inc., priority 2005, dated 2010)", "key": {"Male Wistar rats": {"test_system": "Male Wistar rats", "experiment": "Chronic Mild Stress Model (CMS), sucrose consumption", "type": "in vivo", "conditions": "3 and 30 mg/kg orally, daily for five weeks; imipramine 10 mg/kg ip", "source_text": "CMS uses mild stressors, such as food and water deprivation, cage tilts, changes of cage mates, etc. Over a period of weeks of exposure to the mild stressors, the animals gradually reduce their consumption of a highly preferred sucrose solution which persists (in untreated animals) for several weeks following the cessation of stress. This decreased sensitivity to reward (the sucrose solution) reflects anhedonia, a symptom of a major depressive episode (see for example, Behavioral Pharmacol. 5: Suppl. 1, p. 86 (1994) where lithium, carbamazepine and ketoconazole were evaluated in CMS; Psychopharmacology 93:358-364 (1987) where a tricyclic antidepressant was evaluated in CMS; Behavioral Pharmacology: 5:344-350 (1994) where a catechol-O-methyl transferase inhibitor was evaluated in CMS). […]\nThe animals are first trained to consume a 1% sucrose solution; training consists of eight 1 hour baseline tests in which sucrose is presented, in the home cage, following 14 hours food and water deprivation; intake is measured by weighing pre-weighed bottles containing the sucrose solution at the end of the test. Subsequently, sucrose consumption is monitored, under similar conditions, at weekly intervals throughout the whole experiment. […]\nResults are analyzed by multiple analysis of variance, followed by Fisher's LSD test for post hoc comparisons of means."}, "[1]": {"experiment": "Brain levels after oral dosing in mice by LC/MS/MS", "type": "in vivo, Male CD1 mice", "conditions": "brains collected at 2, 4 and 7 hrs post-dose after oral dosing of test compounds", "description": "Animals: Male CD1 mice (Charles River) weighing about 25 g—with free access to food and water.\nDose Groups The compounds of this invention were administered to the test animals at a dose, which is molar equivalent to 10 mg/kg of the parent compound, ((R)-3-amino-2-hydroxy-propyl)-cyclohexylmethyl-phosphinic acid. Each of the test compounds was formulated at this dose level to yield a dose volume of 10 mL/kg and administered by oral gavage to a group of three mice per time point in each study group. Formulations: The compounds of this invention were dissolved in vehicle of 0.2% Tween 80 and 0.5% methylcellulose (MC) at a concentration of about 1 mg/mL. Samples: The blood samples (for plasma) were collected at the following time points: 5, 15 30 and 45 min […]; and 1, 2, 3, 4, 5, and 7 hrs post-dose. Brains were collected at 2, 4 and 7 hrs post-dose Blood Handling The blood samples were added to tubes containing 20 μL of a stock 10 mg/ml solution of sodium fluoride. The blood tubes were then stored in a refrigerator at approximately about 4° C. […] Bioanalysis: All plasma and brain samples were then analyzed for concentrations of the test compound as well as the parent compound, ((R)-3-amino-2-hydroxy-propyl)-cyclohexylmethyl-phosphinic acid by LC/MS/MS. […]\nWhereas, in most cases, the levels of the test compound was too small to be detected for all of the test compounds analyzed."}}, "data": [{"molecule": "NC[C@@H](O)CP(=O)(O)CC1CCCCC1", "note": "[parent compound, ((R)-3-amino-2-hydroxy-propyl)-cyclohexylmethyl-phosphinic acid]", "values": [{"measurement": "activity in CMS (sucrose intake) compared with imipramine", "setting": "Male Wistar rats", "value": "equal to that of imipramine"}, {"measurement": "concentration of the parent compound in brain", "setting": "[1]", "value": "proportional to the concentration of the parent compound in plasma"}]}]}
